From ChEMBL document CHEMBL3132857, “Design, synthesis and biological evaluation of novel indano- and thiaindano-pyrazoles with potential interest for Alzheimer's disease” (Medchemcomm, 2013)

How the values were obtained:
Acetylcholinesterase [1] = biological target: T1, Acetylcholinesterase (Electrophorus electricus, UniProt O42275); experiment: Inhibition of electric eel AChE using acetylthiocholine chloride by spectrophotometry
Acetylcholinesterase [2] = biological target: T2, Acetylcholinesterase (Homo sapiens, UniProt P22303); experiment: Inhibition of human erythrocyte AChE at 10 uM using acetylthiocholine chloride by spectrophotometry
Acetylcholinesterase [3] = biological target: T2, Acetylcholinesterase; experiment: Inhibition of human erythrocyte AChE using acetylthiocholine chloride by spectrophotometry
[4] = biological target: Butyrylcholinesterase (Equus caballus) (UniProt Q9N1N9); experiment: Inhibition of horse serum BuChE at 10 uM using butyrylthiocholine chloride by spectrophotometry
Acetylcholinesterase [5] = biological target: T1, Acetylcholinesterase; experiment: Non-competitive inhibition of electric eel AChE using acetylthiocholine chloride by Lineweaver-Burk plot method and Ellman's method based spectrophotometry
[6] = biological target: Acetylcholinesterase (Electrophorus electricus) (UniProt O42275); experiment: Inhibition of electric eel AChE at 10 uM using acetylthiocholine chloride by spectrophotometry
Acetylcholinesterase [7] = biological target: T1, Acetylcholinesterase; experiment: Reversible mixed type inhibition of electric eel AChE using acetylthiocholine chloride by Lineweaver-Burk plot method and Ellman's method based spectrophotometry
Butyrylcholinesterase = Butyrylcholinesterase (Equus caballus, UniProt Q9N1N9); experiment: Inhibition of horse serum BuChE using butyrylthiocholine chloride by spectrophotometry

`O=C(CN1CCN(Cc2ccccc2F)CC1)NC1c2cn[nH]c2-c2sccc21` (stereo not drawn) gave an IC50 (Acetylcholinesterase [1]) of 4.59 µM and an inhibition (Acetylcholinesterase [2]) of 42%.
`Cn1ncc2c1-c1sccc1C2NC(=O)CN1CCN(Cc2ccccc2F)CC1` (stereo not drawn) gave an IC50 (Acetylcholinesterase [1]) of 1.31 µM and an IC50 (Acetylcholinesterase [3]) of 1.32 µM.
Work on `Cn1ncc2c1-c1c(Br)sc(Br)c1C2NC(=O)CN1CCN(Cc2ccccc2F)CC1` (stereo not drawn) yielded an IC50 (Acetylcholinesterase [1]) of 0.24 µM, an inhibition [4] of 30% and an IC50 (Acetylcholinesterase [3]) of 0.88 µM. The Ki (Acetylcholinesterase [5]) was 0.429 µM.
Compound `O=C(CN1CCN(Cc2ccccc2)CC1)NC1c2cn[nH]c2-c2c(Br)sc(Br)c21` (stereo not drawn) has an IC50 (Acetylcholinesterase [1]) of 8.82 µM and an IC50 (Acetylcholinesterase [3]) of 1.13 µM.
`COc1cc2c(cc1OC)C(NC(=O)CN1CCN(Cc3ccccc3F)CC1)c1cn[nH]c1-2` (stereo not drawn) gave an IC50 (Acetylcholinesterase [1]) of 3.98 µM and an inhibition (Acetylcholinesterase [2]) of 50%.
Work on `O=C(CN1CCN(Cc2ccccc2F)CC1)NC1c2cn[nH]c2-c2c(Br)sc(Br)c21` (stereo not drawn) yielded an IC50 (Acetylcholinesterase [1]) of 4.53 µM and an inhibition (Acetylcholinesterase [2]) of 42%.
For `O=C(CN1CCN(Cc2ccccc2)CC1)NC1c2cn[nH]c2-c2sccc21` (stereo not drawn), the IC50 (Acetylcholinesterase [3]) was 9.18 µM and the inhibition [6] was 49%.
With `COc1cc2c(cc1OC)C(NC(=O)CN1CCN(Cc3ccccc3)CC1)c1cnn(C)c1-2` (stereo not drawn) the IC50 (Acetylcholinesterase [1]) was 1.28 µM and the IC50 (Acetylcholinesterase [3]) was 1.84 µM.
In the case of `COc1cc2c(cc1OC)C(NC(=O)CN1CCN(Cc3ccccc3F)CC1)c1cnn(-c3ccccc3)c1-2` (stereo not drawn), the IC50 (Acetylcholinesterase [1]) is reported as 0.21 µM, the inhibition [4] is reported as 8% and the IC50 (Acetylcholinesterase [3]) is reported as 2.43 µM.
`Cn1ncc2c1-c1sccc1C2NC(=O)CN1CCN(Cc2ccccc2)CC1` (stereo not drawn) gave an IC50 (Acetylcholinesterase [1]) of 1.91 µM and an IC50 (Acetylcholinesterase [3]) of 0.93 µM.
In the case of `Cn1ncc2c1-c1c(Br)sc(Br)c1C2NC(=O)CN1CCN(Cc2ccccc2)CC1` (stereo not drawn), the IC50 (Acetylcholinesterase [1]) is reported as 0.1 µM, the IC50 (Acetylcholinesterase [3]) is reported as 0.33 µM and the Ki (Acetylcholinesterase [7]) is reported as 0.235 µM. The IC50 (Butyrylcholinesterase) was 7.76 µM.
Compound `O=C(CN1CCN(Cc2ccccc2)CC1)NC1c2ccsc2-c2c1cnn2-c1ccccc1` (stereo not drawn) has an inhibition [6] of 31% and an inhibition (Acetylcholinesterase [2]) of 36%.
`O=C(CN1CCN(Cc2ccccc2F)CC1)NC1c2cnn(-c3ccccc3)c2-c2c(Br)sc(Br)c21` (stereo not drawn) gave an inhibition [6] of 27% and an inhibition (Acetylcholinesterase [2]) of 15%.
`COc1cc2c(cc1OC)C(NC(=O)CN1CCN(Cc3ccccc3F)CC1)c1cnn(C)c1-2` (stereo not drawn) was tested, and the IC50 (Acetylcholinesterase [1]) was 0.72 µM, the inhibition [4] was 1% and the IC50 (Acetylcholinesterase [3]) was 2.44 µM.
In the case of `COc1cc2c(cc1OC)C(NC(=O)CN1CCN(Cc3ccccc3)CC1)c1cn[nH]c1-2` (stereo not drawn), the IC50 (Acetylcholinesterase [1]) is reported as 2.94 µM and the inhibition (Acetylcholinesterase [2]) is reported as 49%.
Work on `O=C(CN1CCN(Cc2ccccc2)CC1)NC1c2cnn(-c3ccccc3)c2-c2c(Br)sc(Br)c21` (stereo not drawn) yielded an IC50 (Acetylcholinesterase [1]) of 0.29 µM, an inhibition [4] of 37% and an IC50 (Acetylcholinesterase [3]) of 0.87 µM.
With `COc1cc2c(cc1OC)C(NC(=O)CN1CCN(Cc3ccccc3)CC1)c1cnn(-c3ccccc3)c1-2` (stereo not drawn) the IC50 (Acetylcholinesterase [1]) was 1.36 µM and the IC50 (Acetylcholinesterase [3]) was 2.99 µM.
For `O=C(CN1CCN(Cc2ccccc2F)CC1)NC1c2ccsc2-c2c1cnn2-c1ccccc1` (stereo not drawn), the IC50 (Acetylcholinesterase [1]) was 4.06 µM and the inhibition (Acetylcholinesterase [2]) was 42%.
